Data published in PMC11009625, “Antibiotic class with potent in vivo activity targeting lipopolysaccharide synthesis in Gram-negative bacteria” (Proceedings of the National Academy of Sciences of the …, 2024).
Values after ≈ are worked out from the molar mass of the structure shown. Read-outs that look alike come from different tables or passages of the source.

Key:
[1] = system: clinical MDR E. coli isolates; experiment: MIC, clinical multi-drug resistant E. coli isolates; assay type: cell-based; conditions: Escherichia coli
Method: (§1) Minimum inhibitory concentration (MIC) values were determined according to the Clinical Laboratory Standards Institute guidelines. Frequency of resistance was determined by plating ~5 × 10^8 bacterial cells on agar-solidified media plates containing test compound at concentrations corresponding to four times the measured solid-media MIC of the strains. Colonies were counted after 24 h, restreaked onto media containing the same concentration of compound, and the MIC remeasured against the assayed compound. Genomic DNA from isolated clones was sequenced by paired-end sequencing on an Illumina MiSeq device. Complete experimental details available in SI Appendix. […]
(§2) Minimum inhibitory concentration (MIC) determination. Broth microdilution and agar dilution MIC assays were conducted according to CLSI guidelines (M07-2012). Appropriate inoculation suspension density was assessed using a Sensititre Nephelometer with a Sensititre 0.5 […]
(§3) McFarland Standard. […]
Whole-genome sequencing and data analysis. Genomic DNA of selected clones was prepared using an Epicentre MasterPure Complete DNA Purification Kit. Whole-genome sequencing libraries were prepared using an Illumina Nextera XT Library Preparation Kit. The libraries were sequenced using an Illumina MiSeq device with a V3 600-cycle reagent kit. Whole-genome sequencing data was analyzed using CLC Genomics Workbench Version 11. To determine the genotype of MDR strains from the ENABLE strain collection, de novo assembled contigs were […]

[2] = system: E. coli EC 106-09 (EN122); experiment: Neutropenic mouse peritonitis model, E. coli; assay type: in vivo, mice; conditions: single sc dose, modeled efficacy curves; for ED50: Escherichia coli
Method: PK and safety studies were done the Latvian Institute for Organic Synthesis (Riga, Latvia) and in vivo efficacy studies were done at Statens Serum Institut (Copenhagen, Denmark). Assays were done in accordance with the relevant permits at the respective sites (SI Appendix). For PK studies, plasma samples were taken from mice dosed subcutaneously and the samples were analyzed by UPLC/MS/MS. For in vivo efficacy studies, neutropenic mice were infected intraperitoneally with 10^6 bacteria and treated with subcutaneously with test compounds 1 h after infection. The mice were euthanized 4 h after treatment and serially diluted samples of blood and peritoneal fluid were plated onto blood agar plates. Complete experimental details available in SI Appendix.
Lantmännen) and water. The experimental procedures were performed in accordance with the guidelines of the European Community and local laws and policies (Directive 2010/63/EU), and all of the procedures were approved by Food and Veterinary Service, Riga, Latvia. […]
Bacterial strains and inoculum. E. coli EC 106-09 (EN122) and K. pneumoniae SSI #3010 (EN124) are clinical isolates from Denmark. Bacterial suspensions for inoculation of mice were prepared […]
at room temperature from fresh overnight cultures on 5% blood agar plates produced by SSI diagnostica (Copenhagen Denmark). The inoculum was prepared immediately before inoculation by suspending colonies in sterile 0.9% saline to an optical density of 0.13 at 540 nm, giving a density of 10^8 CFU/ml and further diluted in 0.9% saline to 2 x 10^6 CFU/ml before injecting into the mice. For each experiment, the size of the inoculum was determined by making ten-fold dilutions in 0.9% saline, of which 20 µl was plated on 5% blood agar plates with subsequent counting of colonies after incubation overnight at 35°C in ambient air.
Mice. Outbred female CD-1 mice 26-30 gram (Envigo, Netherlands) were housed at the animal facility at Statens Serum Institut. The temperature was 22 °C +/- 2 °C and the humidity was 55 +/- 10%. The mice were housed in individually ventilated type 3 macrolone cages with bedding from Tapvei. The air changes per hour were approximately 8-12 times (70-73 times per hours inside cages), and light/dark period was in 12-hours interval of 6 a.m.- 6 p.m./6 p.m – 6 a.m.
The mice had ad libitum access to domestic quality drinking water and food Teklad Global diet 2916C-Envigo) and occasionally peanuts and sunflower seeds (Køge Korn A/S). Further, the animals were offered Enviro-Dri nesting material and cardboard houses (Bio-serv).
Mouse peritonitis model. The mice were rendered neutropenic by injecting 0.5 mL cyclophosphamide solution, 200 mg/kg intraperitoneally at 4 days and 100 mg/kg at 1 day prior to inoculation. 1 h before inoculation, mice were treated orally with […] Nurofen (20 mg ibuprofen/mL corresponding to approximately 30 mg/kg) as a pain relief. Inoculation was performed by intraperitoneal injection of 0.5 ml of the bacterial suspension containing log 6
CFU. The mice were treated subcutaneously with 0.25 – 0.30 mL based on weight, in the neck region with a single dose of compound at 1 hour post inoculation. Mice were monitored for clinical signs of discomfort. 4 h after treatment the mice were anesthetized and blood was collected by heart puncture into EDTA tubes and thereafter mice were euthanized by cervical dislocation and peritoneal washes were performed by injecting 2 ml of sterile saline intraperitoneally, followed by gentle massage of the abdomen and opening the peritoneum to collect fluid. Full blood and peritoneal fluids were serially diluted (ten-fold dilutions) and 20 µl was plated on blood agar plates produced at the SSI diagniostica (Copenhagen, Denmark) with subsequent counting of colonies after incubation overnight at 35°C in ambient. All animal experiments were approved by the National Committee of Animal Ethics – Animal Experiment Inspectorate under the Danish Ministry of Justice.
Statistical analyses. […]

[3] = system: clinical E. coli isolates (n=111); experiment: MIC distribution and MIC90, clinical E. coli isolates; assay type: cell-based; conditions: Escherichia coli; n=111, isolates from Spain, Poland, Denmark and Wales
Method: as §1, §2, §3
To determine the […]
genotype of MDR strains from the ENABLE strain collection, de novo assembled contigs were analyzed using ResFinder (12–14) […]
MIC distribution versus E. coli (n=111)
Clinical Isolates from Spain, Poland, Denmark and Wales
Figure S4. MIC distribution and MIC90 versus clinical E. coli isolates
MIC distribution versus K. pneumoniae (n=104)
Figure S5. MIC distribution and MIC90 versus clinical K. pneumoniae isolates […]

[4] = blood, read-out: ED50, blood, E. coli
[5] = peritoneal fluid, read-out: ED50, peritoneal fluid, E. coli

Structure (SMILES)	MIC ([1]; read-out: MIC E. coli EN0134)	MIC ([1]; read-out: MIC E. coli EN0135)	MIC ([1]; read-out: MIC E. coli EN0136)	MIC ([1]; read-out: MIC E. coli EN0137)	MIC ([1]; read-out: MIC E. coli EN0138)	MIC ([1]; read-out: MIC E. coli EN0139)	MIC ([1]; read-out: MIC E. coli EN0303)	MIC ([1]; read-out: MIC E. coli EN0481)	ED50 [2, 4]	ED50 [2, 5]	1-log effective dose, blood, E. coli ([2]; blood)	2-log effective dose, blood, E. coli ([2]; blood)	3-log effective dose, blood, E. coli ([2]; blood)	1-log effective dose, peritoneal fluid, E. coli ([2]; peritoneal fluid)	2-log effective dose, peritoneal fluid, E. coli ([2]; peritoneal fluid)	MIC90 [3]
Cc1cc(C#N)nc(N2CCN(S(=O)(=O)c3ccc(NC(=O)c4cc(CN5CC(CN)C5)ccc4N(C)S(C)(=O)=O)cc3)CC2)n1 [EBL-3647]	2 µg/mL (≈ 2.99 µM)	2 µg/mL (≈ 2.99 µM)	4 µg/mL (≈ 5.99 µM)	2 µg/mL (≈ 2.99 µM)	4 µg/mL (≈ 5.99 µM)	4 µg/mL (≈ 5.99 µM)	16 µg/mL (≈ 24 µM)	1 µg/mL (≈ 1.5 µM)	12.3 mg/kg	13.6 mg/kg	14.5 mg/kg	19.6 mg/kg	27.6 mg/kg	20.8 mg/kg	31.2 mg/kg	4 µg/mL (≈ 5.99 µM)
Cc1cc(C#N)nc(N2CCN(S(=O)(=O)c3ccc(NC(=O)c4cc(CNCCCN)ccc4N(C)S(C)(=O)=O)cc3)CC2)n1.Cl.Cl [EBL-3599]	2 µg/mL	2 µg/mL	2 µg/mL	4 µg/mL	2 µg/mL	4 µg/mL	16 µg/mL	2 µg/mL	20 mg/kg	29.6 mg/kg	28.3 mg/kg	42.8 mg/kg	63.4 mg/kg	45.9 mg/kg	70.0 mg/kg	4 µg/mL
